Reference: patent publication US20080160000A1 (priority 2006, published 2008)
Like-named read-outs stand apart in the source and are kept apart here.

Experiments:
clostridium perfringens = format: in vivo, chickens; details: for Body weight, compared-group comparison / Body weight gain, compared-group comparison / Feed intake, compared-group comparison / Feed conversion ratio, compared-group comparison / Number of clostridium perfringens, compared-group comparison: index, Fifteenth Group = 100
Eimeria acervulina = assay: Example 1: chickens infected with Eimeria acervulina, feed test (growth, lesion, OPG, ACI); format: in vivo
Protocol: Seven groups (30 chickens/group) of test chickens (type of chickens: chunky, one week of age, male) were prepared.
The test chickens of the first to seventh groups are bred for 12 days by freely feeding the feeds (Table 4) obtained by adding the ingredients to the basal feed (100 mass %) shown in Table 1. The test chickens of the second to seventh groups excluding the first group were infected with oocysts of coccidial protozoa Eimeria acervulina in a ratio of 5.0×10^4 oocysts/chicken in an oral administration manner on the seventh day after the start of the breeding. Next, after the breeding was finished, the test chickens of the groups were dissected, and degrees of lesions in the duodenums were evaluated according to the following evaluation criteria. In addition, on the dissection day, feces of the groups were sampled, and the number of oocysts per gram of the feces (OPG) was measured. OPG scores were determined by OPG values according to the evaluation criteria as follow.

Eimeria maxima = assay: Example 2: chickens infected with Eimeria maxima, feed test (growth, OPG); format: in vivo
Protocol: Three groups (20 chickens/group) of tested chickens (type of chickens: chunky, neonatal chick, male) were prepared.
The test chickens of the eighth to tenth groups are bred for 28 days by freely feeding the feeds (Table 6) obtained by adding the ingredients to the basal feed (100 mass %) shown in Table 1. The test chickens of all the groups were infected with oocysts of coccidial protozoa Eimeria maxima in a ratio of 1.5×10^4 oocysts/chicken in an oral administration manner on the twenty-first day after the breeding. On each sixth to eighth day after the infection, the feces of the groups were sampled, and the number of oocysts per gram of the feces (OPG) was measured (as a three-day average value).

enramycin [Sixteenth Group]
Body weight gain (clostridium perfringens; 1 week): 96 g/chicken | Feed intake (clostridium perfringens; 1 week): 118 g/chicken | Body weight (clostridium perfringens; 1 week of age, basal feed with 30% rye): 136 g/chicken | Body weight, compared-group comparison (clostridium perfringens; 1 week of age): 114 | Body weight gain, compared-group comparison (clostridium perfringens; 1 week): 121 | Feed intake, compared-group comparison (clostridium perfringens; 1 week): 107 | Body weight gain (clostridium perfringens; 2 weeks): 220 g/chicken | Feed intake (clostridium perfringens; 2 weeks): 323 g/chicken | Body weight (clostridium perfringens; 2 weeks of age): 356 g/chicken | Body weight, compared-group comparison (clostridium perfringens; 2 weeks of age): 124 | Body weight gain, compared-group comparison (clostridium perfringens; 2 weeks): 132 | Feed intake, compared-group comparison (clostridium perfringens; 2 weeks): 140 | Body weight gain (clostridium perfringens; 3 weeks): 345 g/chicken | Feed intake (clostridium perfringens; 3 weeks): 510 g/chicken | Body weight (clostridium perfringens; 3 weeks of age): 700 g/chicken | Body weight, compared-group comparison (clostridium perfringens; 3 weeks of age): 130 | Body weight gain, compared-group comparison (clostridium perfringens; 3 weeks): 135 | Feed intake, compared-group comparison (clostridium perfringens; 3 weeks): 124 | Feed conversion ratio (clostridium perfringens; First week): 1.23 | Number of clostridium perfringens (clostridium perfringens; First week, cloacal swab): 2.0 LogCFU/g | Feed conversion ratio, compared-group comparison (clostridium perfringens; First week): 89 | Number of clostridium perfringens, compared-group comparison (clostridium perfringens; First week): 34 | Feed conversion ratio (clostridium perfringens; Second week): 1.47 | Number of clostridium perfringens (clostridium perfringens; Second week, cloacal swab): 2.0 LogCFU/g | Feed conversion ratio, compared-group comparison (clostridium perfringens; Second week): 106 | Number of clostridium perfringens, compared-group comparison (clostridium perfringens; Second week): 47 | Feed conversion ratio (clostridium perfringens; Third week): 1.48 | Number of clostridium perfringens (clostridium perfringens; Third week, cloacal swab): 2.0 LogCFU/g | Feed conversion ratio, compared-group comparison (clostridium perfringens; Third week): 91 | Number of clostridium perfringens, compared-group comparison (clostridium perfringens; Third week): 41 | Feed conversion ratio (clostridium perfringens; Total): 1.44 | Body weight gain (clostridium perfringens; Total (21 days)): 660 g/chicken | Feed intake (clostridium perfringens; Total (21 days)): 950 g/chicken | Number of clostridium perfringens (clostridium perfringens; Total (no unit printed in this row; weekly rows in LogCFU/g)): 2.0 | Body weight gain, compared-group comparison (clostridium perfringens; Total): 132 | Feed conversion ratio, compared-group comparison (clostridium perfringens; Total): 96 | Feed intake, compared-group comparison (clostridium perfringens; Total): 126 | Number of clostridium perfringens, compared-group comparison (clostridium perfringens; Total): 40

CC[C@@H](C(=O)[C@@H](C)[C@@H](O)[C@H](C)[C@@H]1O[C@@H]([C@@H](CC)C(=O)O)CC[C@@H]1C)[C@H]1O[C@]2(C=C[C@@H](O)[C@]3(CC[C@@](C)([C@H]4CC[C@](O)(CC)[C@H](C)O4)O3)O2)[C@H](C)C[C@@H]1C [Third group, Salinomycine]
Average OPG score in feces D (Eimeria acervulina; 0 to 40 points from OPG values per Table 3, average of three tested bodies in each group): 33.3 | ACI (anticoccidial indces) (Eimeria acervulina; ACI = (A + B) − (10C + D)): 126 | Relative ratio weight gain/initial weight (compared with First group) A (Eimeria acervulina; First group (non-infected basal feed) = 100): 95.0% | Average final body weight (Eimeria acervulina; after 12 days breeding, infected on day 7 with 5.0×10^4 oocysts/chicken): 643 g | Feed conversion ratio (Eimeria acervulina; in vivo): 1.32 | Feed intake (Eimeria acervulina; in vivo): 318 g/chicken | Survival ratio B (Eimeria acervulina; in vivo): 100.0% | Weight gain/initial weight ratio (Eimeria acervulina; in vivo): 60.1% | Body weight gain (Eimeria acervulina; initial to final weight): 242 g/chicken | Average lesion score C (Eimeria acervulina; lesion in duodenum, 0 to 4 points per Table 2): 3.6 | Body weight gain (Eimeria maxima; 28 days): 1018 g/chicken | Feed conversion ratio (Eimeria maxima; 28 days): 1.50 | Feed intake (Eimeria maxima; 28 days): 1525 g/chicken | Final body weight (Eimeria maxima; 28 days breeding, infected day 21 with 1.5×10^4 oocysts/chicken): 1054 g/chicken | Maxima OPG (Eimeria maxima; average on the 6 to 8 days after infection): 3.1 10,000 oocysts/g of feces | Growth ratio (Eimeria maxima; in vivo): 100(100) % | Final body weight, compared-group comparison (Eimeria maxima; index, Eighth Group (basal feed) = 100): 117 | Body weight gain, compared-group comparison (Eimeria maxima; index, Eighth Group = 100): 117 | Feed conversion ratio, compared-group comparison (Eimeria maxima; index, Eighth Group = 100): 94 | Feed intake, compared-group comparison (Eimeria maxima; index, Eighth Group = 100): 110 | Growth ratio, compared-group comparison (Eimeria maxima; index, Eighth Group = 100): 100(100) | Maxima OPG, compared-group comparison (Eimeria maxima; index, Eighth Group = 100): 18
